Tests used:
Type in all cases: cell-based
[1] = target: T1, hP2X3 (human Purinergic P2X receptors subtype 3) (Homo sapiens, UniProt P56373); test: Fluo-4 calcium mobilization assay on FDSS7000, ATP as agonist (Method 1); settings: RLE cells stably expressing hP2X3; 2 uM ATP; 20 min preincubation; read-out: Human P2X3 IC50 (μM) Method 1
T1 construct: expressed in transfected cells
T1 sequence (P56373 1-397): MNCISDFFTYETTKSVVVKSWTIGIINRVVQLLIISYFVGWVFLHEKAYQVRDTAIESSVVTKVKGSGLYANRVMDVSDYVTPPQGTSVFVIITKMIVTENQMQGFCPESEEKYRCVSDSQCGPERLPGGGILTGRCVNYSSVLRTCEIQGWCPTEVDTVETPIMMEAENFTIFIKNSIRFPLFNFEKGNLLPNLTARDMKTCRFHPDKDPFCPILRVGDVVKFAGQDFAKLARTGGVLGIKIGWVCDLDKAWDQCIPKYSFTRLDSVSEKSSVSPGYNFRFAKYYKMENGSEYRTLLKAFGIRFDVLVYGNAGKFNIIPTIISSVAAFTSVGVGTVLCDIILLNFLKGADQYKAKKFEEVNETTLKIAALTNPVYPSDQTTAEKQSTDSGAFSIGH
Protocol: (§1) The antagonist properties of compounds in the present invention were assayed as inhibitors of intracellular calcium increase induced by activation of hP2X3 (human Purinergic P2X receptors subtype 3, accession number AB016608 for clone A and accession number NM_002559 for clone B), expressed in RLE cells (rat liver […], ATCC. The RLE/hP2X3 cells were grown in William's medium 1× (Gibco, 12551-032), supplemented with 10% Fetal bovine serum (Wisent, 090850), 2 mM L-Glutamine (Wisent, 609-065-EL), and 600 μg/mL Geneticin G-418 (Wisent, 61234) in a humidified incubator (5% CO2 and 37° C.).
(§2) In one assay, Fluo-4 assay on FDSS7000 (Hamamatsu) was performed using cryopreserved RLE cells stably expressing hP2X3 plated in 384 well plates, 24 hr before the experiment at a density appropriate for obtaining the desired final confluence. After processing the cell plates with Fluo-4 and performing a subsequent incubation followed by washing steps, a double addition was carried out. The first addition included the test compounds diluted in HBSS buffer containing 2 mM CaCl2 preincubated for 20 min before a second addition. The second addition included 2 uM of ATP. Calcium mobilization was measured with the FDSS7000 over a time lapse of 3 min, and fluorescent counts were exported for analysis. […] Hill coefficients and % inhibitions can also be determined.

[2] = target: T1, hP2X3 (human Purinergic P2X receptors subtype 3); test: Fluo-4 calcium mobilization assay, α,β methylene-ATP as agonist (Method 2); settings: RLE cells stably expressing hP2X3; α,β methylene-ATP instead of ATP; read-out: Human P2X3 IC50 (μM) Method 2
Protocol: as §1
as §2, with “The second addition included 2 uM of ATP.” left out, “determined. […]” for “determined.”

[3] = target: T1, hP2X3 (human Purinergic P2X receptors subtype 3); test: FLIPR FLUO-4 AM calcium assay, α,β-methylene-ATP as agonist (Method 3); settings: hP2X3-expressing RLE cells, 500 nM α,β-methylene-ATP, read-out: Human P2X3 IC50 (μM) Method 3
Protocol: as §1
In a third assay, hP2X3-expressing cells were maintained in culture and the day before the experiment, the cells were plated in 384-black polylysine coated plates (Becton/Dickinson, 356663) at 8000 cells/well in 50 μL/well in William's medium without Geneticin, and then placed in an incubator for 24 hr. On the day of the experiment, the cells and test compounds were prepared as follows. […] Experiments were initiated by measuring a baseline fluorescence reading for 10 sec, followed by adding 12.5 μL of compounds and data sampling for a total 280 seconds. […] During entire experiment, fluorescence emission was read by the FLIPR on board CCD camera using filter with emission wavelength of 520-545 nm. […] Hill coefficients and % inhibitions can also be determined.

CNC(=O)c1cc(F)c(-c2nc3cc(C)ccc3n2C[C@H]2CN(C(=O)OC)CCO2)c(F)c1 [Example 3, (S)-methyl 2-((2-(2,6-difluoro-4-(methylcarbamoyl)phenyl)-5-methyl-1H-benzo[d]imidazol-1-yl)methyl)morpholine-4-carboxylate]
IC50 [1]: 0.007 µM
IC50 [2]: 0.014 µM
IC50 [3]: 0.016 µM

CNC(=O)c1cc(F)c(-c2nc3cc(C)ccc3n2C[C@@H]2CN(C(=O)OC)CCO2)c(F)c1 [Example 5, (R)-methyl 2-((2-(2,6-difluoro-4-(methylcarbamoyl)phenyl)-5-methyl-1H-benzo[d]imidazol-1-yl)methyl)morpholine-4-carboxylate]
IC50 [3]: 0.016 µM

Reference: patent publication US8530467B2, “Benzoimidazole compounds and uses thereof” (Neomed Institute, priority 2009, dated 2013)
